Assay results taken from patent publication US6747033B2, “Fungicidal triazolopyrimid-7-ylideneamines” (BASF Aktiengesellschaft, priority 2000, dated 2004).
Like-named read-outs stand apart in the source and are kept apart here.

Columns and labels:
[1] = tested on: Pyricularia grisea f. sp. oryzae; format: in vivo; settings: Rice Blast
Alternara solani = experiment: In vivo fungicidal activity, Tomato early blight (TEB); also: ranges in brackets are in %
Blumeria graminis = experiment: In vivo fungicidal activity, Wheat powdery mildew (WPM); also: ranges in brackets are in %
Cercospora beticola = experiment: In vivo fungicidal activity, Sugar Beet Cercospora (SBC); also: ranges in brackets are in %
Botrytis cinera = experiment: In vivo fungicidal activity, Pepper Botrytis (PB); also: ranges in brackets are in %
Rhizoctonia solani = experiment: In vitro fungicidal activity, Rice sheath blight (RHIZSO); format: cell-based; design: key: 0: None; 3: slight; 5: moderate; 7: severe; 9: complete; settings: 3-7 days of incubation
Protocol: (§1) Test compounds are dissolved in acetone to give concentrations of 25, 10 and 1 ppm and are added to individual cell Walls (24-cell-well plates, Corning), which were previously filled with a suspension of ground plates, Corning), which were previously filled with a suspension of ground fungal mycelium in a chemically defined growth medium. After 3-7 days of incubation, inhibition of […] growth is recorded using the following scale: The data obtained are shown in Table II. [table]

[2] = tested on: Pseudocercosporella herpotrichoides; experiment: In vitro fungicidal activity, Cereal eye spot (PSDCHE); format: cell-based; design: key: 0: None; 3: slight; 5: moderate; 7: severe; 9: complete; settings: 3-7 days of incubation
Protocol: as §1

Plasmopara viticola = experiment: In vivo fungicidal activity, Grape downy mildew (GDM); also: ranges in brackets are in %
Venturia inaequalis = experiment: In vivo fungicidal activity, Apple Scab (AS); also: ranges in brackets are in %
Pythium ultimum = experiment: In vitro fungicidal activity, Fruit rot (PYTHUL); format: cell-based; design: key: 0: None; 3: slight; 5: moderate; 7: severe; 9: complete; settings: 3-7 days of incubation
Protocol: as §1

Molecule	RB disease control rating ([1]; 12.5 ppm spray)	RB disease control rating ([1]; 50 ppm spray)	RB disease control rating ([1]; 200 ppm spray)	TEB disease control rating (Alternara solani; 12.5 ppm spray)	TEB disease control rating (Alternara solani; 50 ppm spray)	TEB disease control rating (Alternara solani; 200 ppm spray)	WPM disease control rating (Blumeria graminis; 12.5 ppm spray)	WPM disease control rating (Blumeria graminis; 50 ppm spray)	WPM disease control rating (Blumeria graminis; 200 ppm spray)	SBC disease control rating (Cercospora beticola; 12.5 ppm spray)	SBC disease control rating (Cercospora beticola; 50 ppm spray)	SBC disease control rating (Cercospora beticola; 200 ppm spray)	PB disease control rating (Botrytis cinera; 12.5 ppm spray)	PB disease control rating (Botrytis cinera; 50 ppm spray)	PB disease control rating (Botrytis cinera; 200 ppm spray)	RHIZSO inhibition of mycelial growth rating (Rhizoctonia solani; 1 ppm)	RHIZSO inhibition of mycelial growth rating (Rhizoctonia solani; 10 ppm)	RHIZSO inhibition of mycelial growth rating (Rhizoctonia solani; 25 ppm)	PSDCH inhibition of mycelial growth rating ([2]; 1 ppm)	PSDCH inhibition of mycelial growth rating ([2]; 10 ppm)	also measured
CCn1cnn2c(=NC(C)C(F)(F)F)c(-c3c(F)cc(F)cc3F)c(Cl)nc12 (stereo not drawn) [Example 10]	0 (0)	4 (45-59)	6 (75-89)	0 (0)	4 (45-59)	5 (60-74)	0 (0)	0 (0)	0 (0)	3 (30-44)	6 (75-89)	6 (75-89)	4 (45-59)	0 (0)	0 (0)	0	5	5	0	0	PSDCH inhibition of mycelial growth rating ([2]; 25 ppm): 0; GDM disease control rating (Plasmopara viticola; 12.5 ppm spray): 0 (0); GDM disease control rating (Plasmopara viticola; 50 ppm spray): 0 (0); GDM disease control rating (Plasmopara viticola; 200 ppm spray): 0 (0); AS disease control rating (Venturia inaequalis; 12.5 ppm spray): 0 (0); AS disease control rating (Venturia inaequalis; 50 ppm spray): 0 (0); AS disease control rating (Venturia inaequalis; 200 ppm spray): 6 (75-89); PYTHU inhibition of mycelial growth rating (Pythium ultimum; 1 ppm): 0; PYTHU inhibition of mycelial growth rating (Pythium ultimum; 10 ppm): 3; PYTHU inhibition of mycelial growth rating (Pythium ultimum; 25 ppm): 5
CCCn1cnn2c(=NC(C)C(F)(F)F)c(-c3c(F)cc(F)cc3F)c(Cl)nc12 (stereo not drawn) [Example 11]	0 (0)	3 (30-44)	4 (45-59)	0 (0)	0 (0)	0 (0)	0 (0)	0 (0)	0 (0)	0 (0)	0 (0)	3 (30-44)	0 (0)	0 (0)	0 (0)	0	0	0	0	0	PSDCH inhibition of mycelial growth rating ([2]; 25 ppm): 0; GDM disease control rating (Plasmopara viticola; 12.5 ppm spray): 0 (0); GDM disease control rating (Plasmopara viticola; 50 ppm spray): 0 (0); GDM disease control rating (Plasmopara viticola; 200 ppm spray): 3 (30-44); AS disease control rating (Venturia inaequalis; 12.5 ppm spray): 0 (0); AS disease control rating (Venturia inaequalis; 50 ppm spray): 6 (75-89); AS disease control rating (Venturia inaequalis; 200 ppm spray): 7 (90-95); PYTHU inhibition of mycelial growth rating (Pythium ultimum; 1 ppm): 0; PYTHU inhibition of mycelial growth rating (Pythium ultimum; 10 ppm): 1; PYTHU inhibition of mycelial growth rating (Pythium ultimum; 25 ppm): 1
N-[5-chloro-3-methyl-6-(2,4,6-trifluorophenyl)-4H-[1,2,4]triazolo[1,5-α]pyrimidin-7-ylidene]-N-(2,2,2-trifluoroethyl)-amine [Example 1B]	0 (0)	0 (0)	5 (60-74)	0 (0)	2 (15-29)	4 (45-59)	0 (0)	0 (0)	0 (0)	0 (0)	6 (75-89)	6 (75-89)	0 (0)	0 (0)	6 (75-89)	5	5	5	0	1	PSDCH inhibition of mycelial growth rating ([2]; 25 ppm): 3; GDM disease control rating (Plasmopara viticola; 12.5 ppm spray): 0 (0); GDM disease control rating (Plasmopara viticola; 50 ppm spray): 0 (0); GDM disease control rating (Plasmopara viticola; 200 ppm spray): 7 (90-95); AS disease control rating (Venturia inaequalis; 12.5 ppm spray): 4 (45-59); AS disease control rating (Venturia inaequalis; 50 ppm spray): 4 (45-59); AS disease control rating (Venturia inaequalis; 200 ppm spray): 5 (60-74); PYTHU inhibition of mycelial growth rating (Pythium ultimum; 1 ppm): 0; PYTHU inhibition of mycelial growth rating (Pythium ultimum; 10 ppm): 1; PYTHU inhibition of mycelial growth rating (Pythium ultimum; 25 ppm): 5
